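Exposure lasted 48 hours, with cells grown in 96-well plates and compounds tested at five concentrations. GI50 = concentration required for 50% inhibition of growth. The concentration for full growth arrest is given as TGI.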

Some test systems named below: HT29 colon; KM12 colon; NCI-H460 lung; OVCAR-4 ovarian; OVCAR-8 ovarian; PC-3 prostate; SNB-75 CNS; U251 CNS; K-562 leukemia; RXF 393 renal.
Holding throughout (test): NCI tumour cell line growth inhibition, 48 h

On to `CCOc1cc(C=Nc2ccc(Oc3ccc(Cl)cc3)c(Cl)c2)ccc1O`, for which the TGI was 46.6 µM in the assay on HT29 colon; 39 µM in the assay with KM12 colon; 43.2 µM in the assay with NCI-H460 lung; 80.4 µM in the assay with OVCAR-4 ovarian; 65.4 µM in the assay on OVCAR-8 ovarian; 88.7 µM with PC-3 prostate. Also, the TGI in the assay with SNB-75 CNS was found to be 45.7 µM; with U251 CNS, 44.4 µM.
For the compound `C#Cc1ccccc1C(=O)OC`, the TGI in the assay on HT29 colon, in the assay on K-562 leukemia, with KM12 colon, in the assay on NCI-H460 lung, in the assay with OVCAR-4 ovarian and in the assay with OVCAR-8 ovarian was more than 100 µM in each case. Also, the TGI in the assay with RXF 393 renal, with SNB-75 CNS and with U251 CNS was more than 100 µM each time.
For the compound `Cn1c(=O)n2n(c1=O)C1C(=CC2)C2C=CC1n1c(=O)n(C)c(=O)n12` (stereo not given), the TGI in the assay on HT29 colon, in the assay with K-562 leukemia, in the assay on KM12 colon, in the assay with NCI-H460 lung, in the assay with OVCAR-8 ovarian and in the assay with PC-3 prostate was more than 100 µM each time. Moreover, the TGI in the assay with RXF 393 renal, in the assay on SNB-75 CNS and with U251 CNS was more than 100 µM each time.
On to `CC1Oc2c(c(O)cc3oc(=O)cc(-c4ccccc4)c23)C(=O)C1C` (stereo not given), for which the TGI in the assay with K-562 leukemia, with NCI-H460 lung, in the assay on OVCAR-8 ovarian, in the assay with SNB-75 CNS and with U251 CNS was more than 100 µM each time.
Consider `O.O=[Se](=O)(O)O.[NH-]C1CCCCC1[NH-].[Pt+2]` (stereo not given), for which the GI50 with HT29 colon is 4.62 µM; in the assay on K-562 leukemia, 5.35 µM; in the assay on KM12 colon, 47.2 µM; in the assay with NCI-H460 lung, 3.77 µM; in the assay on OVCAR-4 ovarian, 11.6 µM; in the assay on OVCAR-8 ovarian, 7.55 µM. In addition, the GI50 with RXF 393 renal is 4.63 µM; in the assay with SNB-75 CNS it was 16.9 µM; in the assay on U251 CNS it was 37 µM. Also, the TGI with HT29 colon is more than 100 µM; in the assay with K-562 leukemia it was more than 100 µM; in the assay on KM12 colon, more than 100 µM; in the assay on NCI-H460 lung, 38.7 µM; with OVCAR-4 ovarian, more than 100 µM; in the assay on OVCAR-8 ovarian, more than 100 µM. The TGI with RXF 393 renal was 30.5 µM; in the assay on SNB-75 CNS it was more than 83 µM; in the assay with U251 CNS it was more than 100 µM.
As for `C=C1C[C@]23CC[C@@H]4C(CO)(CO)CC(=O)C[C@]4(C)[C@@H]2C(O)C[C@H]1C3` (stereo not given in full), the TGI in the assay on HT29 colon, with K-562 leukemia, with KM12 colon, in the assay on NCI-H460 lung, in the assay with OVCAR-4 ovarian and in the assay on OVCAR-8 ovarian was more than 100 µM in each case. Also, the TGI with PC-3 prostate, in the assay with SNB-75 CNS and in the assay on U251 CNS was more than 100 µM each time.
`C=C1C(=O)OC2C1CC1OC2C(C)CCC/C(C)=C\CCC1(C)O` (stereo not given): the TGI was more than 91.1 µM with HT29 colon; 48.5 µM in the assay on K-562 leukemia; 59 µM in the assay with KM12 colon; 60.9 µM with NCI-H460 lung; 56.6 µM in the assay with OVCAR-4 ovarian; 31.4 µM in the assay with OVCAR-8 ovarian. Besides, the TGI in the assay on RXF 393 renal is 17.9 µM; in the assay with SNB-75 CNS, 51.5 µM; in the assay on U251 CNS it was more than 91.1 µM.
`CCOC(=O)Cn1c(C)nc2nn(Cc3ccccc3)cc2c1=O`: the TGI in the assay with HT29 colon, in the assay on K-562 leukemia, in the assay on KM12 colon, in the assay with NCI-H460 lung, with OVCAR-8 ovarian and in the assay with PC-3 prostate was more than 100 µM in each case. The TGI in the assay on RXF 393 renal and in the assay on U251 CNS was more than 100 µM in each case.
As to `COc1ccc(/C(Cl)=C(\C=O)c2ccc(Cl)cc2)cc1`, the TGI in the assay with HT29 colon was 15.6 µM; in the assay with K-562 leukemia it was more than 100 µM; in the assay with NCI-H460 lung, more than 100 µM; with OVCAR-4 ovarian it was more than 100 µM; with OVCAR-8 ovarian it was 45.6 µM; in the assay on RXF 393 renal, 57.3 µM. The TGI in the assay on SNB-75 CNS is 26.2 µM; in the assay on U251 CNS it was 17.7 µM.
Regarding `Cc1ccc(Oc2cc(C)ccc2P(=O)(O)O)cc1`, the TGI in the assay on K-562 leukemia, with KM12 colon, in the assay on OVCAR-8 ovarian, with PC-3 prostate, in the assay on RXF 393 renal and in the assay on SNB-75 CNS was more than 100 µM in each case.
As to `CCC[CH2][Ge]([CH2]CCC)([CH2]CCC)[O]C(=O)CCl`, the GI50 is 0.628 µM in the assay with HT29 colon; 0.879 µM in the assay with K-562 leukemia; 1.4 µM with KM12 colon; 0.518 µM in the assay on NCI-H460 lung; 2.76 µM in the assay on OVCAR-4 ovarian; 5.19 µM in the assay on OVCAR-8 ovarian. Moreover, the GI50 is 0.612 µM with RXF 393 renal and 0.889 µM in the assay with U251 CNS. For the same compound, the TGI in the assay with HT29 colon was 11.5 µM; with K-562 leukemia, 31.6 µM; with KM12 colon it was 15.9 µM; in the assay with NCI-H460 lung it was 13.2 µM; in the assay with OVCAR-4 ovarian, 21.5 µM; in the assay with OVCAR-8 ovarian, 22 µM. For the same compound, the TGI came out at 3.56 µM with RXF 393 renal and 16.6 µM in the assay on U251 CNS.
Turning to `Cn1cnc([N+](=O)[O-])c1Sc1nncc2[nH]cnc12`, the TGI in the assay with HT29 colon, in the assay with K-562 leukemia, in the assay on KM12 colon, in the assay with OVCAR-4 ovarian, with OVCAR-8 ovarian and with PC-3 prostate was more than 100 µM each time. Besides, the TGI in the assay with SNB-75 CNS and in the assay on U251 CNS was more than 100 µM in each case.
Take `NCCCN1CCN(CCCNc2ccc3ncn4c5ccccc5c(=O)c2c34)CC1`: the TGI with HT29 colon was 6.7 µM; in the assay on K-562 leukemia it was more than 25 µM; in the assay with KM12 colon, 13.1 µM; in the assay on NCI-H460 lung, 6.24 µM; in the assay with OVCAR-4 ovarian, 2.89 µM; in the assay on OVCAR-8 ovarian, 19.5 µM. Moreover, the TGI with PC-3 prostate was 10.8 µM; with SNB-75 CNS, 8.71 µM; in the assay with U251 CNS, more than 25 µM.
Consider `COc1ccc(C2=C(N)c3ccccc3C2=O)cc1`, for which the TGI in the assay on HT29 colon, in the assay with KM12 colon, in the assay with NCI-H460 lung, in the assay with OVCAR-4 ovarian, with OVCAR-8 ovarian and with PC-3 prostate was more than 100 µM each time. Also, the results for the TGI in the assay on SNB-75 CNS and in the assay with U251 CNS were 78.7 µM and more than 100 µM, respectively.
